# Data published in patent publication US12281070B2, “Water soluble antiviral and antimicrobial compound and process for preparation thereof” (priority 2020, dated 2025).
# Key:
# Oral toxicity LD50, mice = assay type: in vivo
# Oral toxicity LD50, rat = assay type: in vivo
# [1] = system: Escherichia coli (ATCC 8739); assay: Evaluation of antimicrobial activity, E. coli; assay type: cell-based; settings: 10 mg/10 ml
# [2] = system: Staphylococcus aureus (ATCC 6538); assay: Evaluation of antimicrobial activity, S. aureus; assay type: cell-based; settings: 10 mg/10 ml
# [3] = Water solubility / dispersibility of the synthesized substance; assay type: physicochemical; settings: semi solid creamy substance as synthesized
# avian influenza = system: avian influenza; set-up: species or system poultry birds; settings: in vivo
# [4] = system: Bacillus subtilis (ATCC 6633); assay: Evaluation of antimicrobial activity, B. subtilis; assay type: cell-based; settings: 10 mg/10 ml
# [5] = system: SARS CoV-2 NIV2020-770 isolate; assay type: cell-based; settings: 72 hours
# [6] = system: PI-3 virus (enveloped virus); assay type: cell-based, Bovine parainfluenza virus
smiles,measurement,setting,value
"CCCCCCCCCCCCCCCCC(=O)OC(O)CO (stereo not shown) [Formula II, 1,2-dihydroxyethyl heptadecanoate]",LD 50,"Oral toxicity LD50, mice",4000 mg per kg wt
same,LD 50,"Oral toxicity LD50, rat",4000 mg per kg wt
same,% reduction after 30 seconds,"[1]; contact 30 seconds, inoculum 70000000 Cfu/ml",31.43%
same,% reduction after 1 minute,[1]; contact 1 minute,55.71%
same,% reduction after 5 minutes,[1]; contact 5 minutes,60%
same,% reduction after 10 minutes,[1]; contact 10 minutes,64.29%
same,% reduction after 20 minutes,[1]; contact 20 minutes,99.9851%
same,% reduction after 30 seconds,"[2]; contact 30 seconds, inoculum 74000000 Cfu/ml",31.08%
same,% reduction after 1 minute,[2]; contact 1 minute,43.24%
same,% reduction after 5 minutes,[2]; contact 5 minutes,54.05%
same,% reduction after 10 minutes,[2]; contact 10 minutes,62.16%
same,% reduction after 20 minutes,[2]; contact 20 minutes,99.9627%
same,solubility in water,[3],water soluble and/or water dispersible
same,cytotoxicity,Vero CCL-81 cells,Dose dependent cytotoxicity
same,CC50,Vero CCL-81 cells; 72 hours,600 fold dilution
same,reduction in mortality of avian influenza infected birds,avian influenza,92%
same,% reduction after 30 seconds,"[4]; contact 30 seconds, inoculum 76000000 Cfu/ml",27.63%
same,% reduction after 1 minute,[4]; contact 1 minute,44.74%
same,% reduction after 5 minutes,[4]; contact 5 minutes,59.21%
same,% reduction after 10 minutes,[4]; contact 10 minutes,65.79%
same,% reduction after 20 minutes,[4]; contact 20 minutes,99.9789%
same,inhibition of the RdRp-2 gene,[5],~40%
same,% Log reduction,[6],99.25%
same,Log10 Reduction,[6],2.12 Log10
same,Virus Titer (Log10 TCID50/mL),[6],2.50 Log10 TCID50/mL
